Reference: ChEMBL document CHEMBL5214958, “Discovery of novel compounds as potent activators of Sirt3” (Bioorg Med Chem, 2022)

Legend:
[1] = biological target: T1, NAD-dependent protein deacetylase sirtuin-3, mitochondrial (Homo sapiens, UniProt Q9NTG7); assay: Binding affinity to human Sirt3 (118 to 399 residues) assessed as dissociation constant of ternary complex using acetylated MnSOD peptide as substrate in presence of OAADPr by microscale thermophoresis analysis
T1 sequence (Q9NTG7 whole entry): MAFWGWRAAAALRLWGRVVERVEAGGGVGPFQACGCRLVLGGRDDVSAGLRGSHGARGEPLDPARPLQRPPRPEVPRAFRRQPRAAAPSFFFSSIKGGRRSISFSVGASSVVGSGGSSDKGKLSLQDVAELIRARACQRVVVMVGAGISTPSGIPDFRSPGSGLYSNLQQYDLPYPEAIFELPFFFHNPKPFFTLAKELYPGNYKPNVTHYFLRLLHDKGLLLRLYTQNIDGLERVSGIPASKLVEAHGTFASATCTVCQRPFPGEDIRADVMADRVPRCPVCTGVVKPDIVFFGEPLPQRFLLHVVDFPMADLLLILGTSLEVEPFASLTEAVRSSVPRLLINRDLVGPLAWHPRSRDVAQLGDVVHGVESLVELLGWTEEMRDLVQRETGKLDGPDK

[2] = biological target: T1, NAD-dependent protein deacetylase sirtuin-3, mitochondrial; assay: Binding affinity to human Sirt3 (118 to 399 residues) assessed as dissociation constant using 625nM acetylated MnSOD peptide as substrate by microscale thermophoresis analysis
[3] = biological target: T1, NAD-dependent protein deacetylase sirtuin-3, mitochondrial; assay: Binding affinity to human Sirt3 (118 to 399 residues) assessed as dissociation constant using acetylated MnSOD peptide as substrate by microscale thermophoresis analysis
[4] = biological target: T2, NAD-dependent protein deacetylase sirtuin-3, mitochondrial (Homo sapiens) (UniProt Q9NTG7); assay: (§1) Modulation of human Sirt3 (118 to 399 residues) deacetylation activity under non-steady state assessed as substrate deacetylation at low enzyme concentration with [E]0/[NAD+]0 ratio of 0.3 at 10 uM incubated for 2 mins using MnSOD peptide as substrate in presence of NAD+ by HPLC-assay relative to control; details: filed as modulator
T2 sequence (whole entry): T1 sequence (Q9NTG7 whole entry)

[5] = biological target: T2, NAD-dependent protein deacetylase sirtuin-3, mitochondrial (Homo sapiens); assay: as §1, with “high” for “low”, “0.6” for “0.3”; details: filed as modulator
[6] = biological target: T2, NAD-dependent protein deacetylase sirtuin-3, mitochondrial (Homo sapiens); assay: as §1, with “0.1” for “0.3”; details: filed as modulator
[7] = biological target: T1, NAD-dependent protein deacetylase sirtuin-3, mitochondrial; assay: Binding affinity to human Sirt3 (118 to 399 residues) assessed as dissociation constant of ternary complex using acetylated MnSOD peptide as substrate in presence of OAADPr by short DNA nano levers based switchSENSE microfluid bio-chip analysis
[8] = biological target: T1, NAD-dependent protein deacetylase sirtuin-3, mitochondrial; assay: Binding affinity to human Sirt3 (118 to 399 residues) assessed as dissociation constant (Koff) by short DNA nano levers based switchSENSE microfluid bio-chip analysis
[9] = biological target: T1, NAD-dependent protein deacetylase sirtuin-3, mitochondrial; assay: Modulation of human Sirt3 (118 to 399 residues) deacetylation activity under non-steady state assessed as substrate deacetylation at low enzyme concentration with [E]0/[NAD+]0 ratio of 0.1 incubated for 5 mins using MnSOD peptide as substrate in presence of NAD+ by HPLC-assay relative to control
[10] = biological target: T1, NAD-dependent protein deacetylase sirtuin-3, mitochondrial; assay: Binding affinity to human Sirt3 (118 to 399 residues) assessed as dissociation constant (Koff) of ternary complex using acetylated MnSOD peptide as substrate in presence of OAADPr by short DNA nano levers based switchSENSE microfluid bio-chip analysis
[11] = biological target: T1, NAD-dependent protein deacetylase sirtuin-3, mitochondrial; assay: Binding affinity to human Sirt3 (118 to 399 residues) assessed as dissociation constant using acetylated MnSOD peptide as substrate in presence of honokiol by microscale thermophoresis analysis

C=CCc1ccc(O)c(-c2ccc(O)c(CC=C)c2)c1 [HONOKIOL]
Kd [1]: 290 nM | Kd [2]: 2990 nM | Kd [3]: 0.97 µM | Activity [4]: 108%

CCCCNC(=O)[C@@H](Cc1ccc(Cl)cc1)NC(=O)CSC(=S)c1ccccc1
Activity [4]: 100%

C=C(CC)C(=O)c1ccc(OCC(=O)N[C@H](Cc2ccc(Cl)cc2)C(=O)NCCCC)c(Cl)c1Cl
Activity [5]: 107% | Activity [4]: 104%

Cc1ccc(-c2nc3n(n2)C(=O)CC(c2cccc4ccccc24)S3)cc1 (stereo not given)
Activity [6]: 114% | Activity [5]: 127%

CCCCNC(=O)COc1ccc2c(c1)CCc1ccccc1C2NC(=O)CCCOc1cc([N+](=O)[O-])c(C(C)O)cc1OC (stereo not given)
Kd [7]: 12.6 µM | Kd [8]: 0.22 s⁻¹ | EC50 [9]: < 5 µM | Kd [10]: 0.162 s⁻¹

NC(=O)c1ccc[n+]([C@@H]2C[C@H](COP(=O)(O)OP(=O)(O)OC[C@H]3O[C@@H](n4cnc5c(N)ncnc54)[C@H](O)[C@@H]3O)[C@@H](O)[C@H]2O)c1
Kd [11]: 6.6 µM | Kd [3]: 7.3 µM
